Consider 14 molecules from article PMC10458312, “Xanthones with Potential Anti-Inflammatory and Anti-HIV Effects from the Stems and Leaves of Cratoxylum cochinchinense” (Molecules, 2023).

Data set [1] concerns NO production induced by lipopolysaccharide in mouse macrophage RAW 264.7 cells. Put plainly: Inhibition of NO production induced by lipopolysaccharide in RAW 264.7 cells (Griess reaction). In kind it is cell-based. The settings on record: RAW264.7, LPS-induced RAW 264.7 cells, 24 h, mean ± SD of triplicate determinations, read-out: IC50 (50% inhibitory concentration on NO production).

Data set [2] in a line: MTT cytotoxicity assay against C8166 cells. To be noted: human. In kind it is cell-based. As to the method: (§1) Anti-HIV-1 activity bioassays
50% DMF-20% SDS (100.0 μL) was added. After the formazan was dissolved completely, the
volume per well was 200.0 μL. Control assays were performed without the testing compounds in
HIV-1IIIB infected and uninfected cultures. […]

The test system of a further data set is HIV-1IIIB. Nature of the data set: Inhibition assay for the cytopathic effects of HIV-1 (syncytia formation) in C8166 cells. To be noted: for TI (therapeutic index) = CC50/EC50: CC50 in C8166 / EC50 against HIV-1; for EC50: Human immunodeficiency virus 1, C8166, 72 h, read-out: EC50 (50% effective concentration), anti-HIV-1. As to the method:
All isolated xanthones 1–12 were assessed for their anti-HIV reverse transcriptase (RT) effects according to the inhibition assay for the cytopathic activities of HIV-1 (EC50) as well as the cytotoxic activities assay against C8166 cell line (CC50) according to MTT methods.
All isolated xanthones 1–12 were assessed for their anti-HIV-1 reverse transcriptase (RT) effects in vitro on the basis of the inhibition assay for the cytopathic effects of HIV-1 (EC50), in light of the protocol which is described in detail in the Supplementary Material of our current article, in which AZT (3′-azido-3′-deoxythymidine) was adopted as the positive control. All isolated xanthones 1–12 and the positive control (AZT) were also evaluated for their cytotoxic activities against C8166 cells (CC50) on the basis of the MTT method. […]
as §1
Cytotoxicity against C8166 cells (CC50) was assessed using the MTT method, and anti-HIV-1 activity was evaluated by the inhibition assay for the cytopathic effects of HIV-1 (EC50). Briefly, cells were seeded on a microtiter plate in the absence or presence of various concentrations of compounds in triplicate and incubated at 37 °C in a humid atmosphere of 5% CO2 for three days.
20.0 μL MTT reagent (5.0 mg/mL in PBS) was added to each well, then incubated at 37 °C for 4 h, 50% DMF-20% SDS (100.0 μL) was added. After the formazan was dissolved completely, the plates were read on a Bio-Tek ELx 800 ELISA reader at 595 nm/630 nm (A595/630). The cytotoxic concentration that caused the reduction of viable cells by 50% (CC50) was calculated from dose–response curve. In 100.0 μL various concentrations of compounds, C8166 cells (4×10^5/mL) were infected with virus (HIV-1IIIB) at a multiplicity of infection (M. O. I) of 0.06. The final volume per well was 200.0 μL. Control assays were performed without the testing compounds in HIV-1IIIB infected and uninfected cultures. AZT (3′-azido-3′-deoxythymidine) was used as a positive control. After three days of culture, the cytopathic effect (CPE) was measured by counting the number of syncytia (multinucleated giant cell). Percentage inhibition of syncytia formation was calculated and 50% effective concentration (EC50) was calculated. The therapeutic index (TI) was calculated from the ratio of CC50/EC50.

The mark [3] stands for this setting: C8166 cells, C8166 cell line, MTT, three days, read-out: CC50 (50% cytotoxic concentration).

Molecules are shown by their SMILES. Read-outs that look alike come from different tables or passages of the source.

Take `CC1(C)c2c(cc(O)c3c(=O)c4ccc(O)c(O)c4oc23)O[C@H]1CO` [Compound 6, cochinchinone P]: the IC50 in data set [1] amounted to 8.35 ± 0.15 µM. The CC50 at 3 days in data set [2] (setting [3]) is over 200 µM. In the data set on HIV-1IIIB, the “TI (therapeutic index) = CC50/EC50” value is over 64.94 and the EC50 turned out to be 3.08 µM.

In the case of `C[C@@H]1Oc2cc(O)c3c(=O)c4cc(O)c(O)c(O)c4oc3c2C1(C)C` [Compound 7, 2-deprenyl-7-hydroxy-rheediaxanthone], the IC50 in data set [1] was 12.58 ± 0.12 µM. Also, the CC50 at 3 days in data set [2] (setting [3]) is over 200 µM. Moreover, in the data set with HIV-1IIIB, the “TI (therapeutic index) = CC50/EC50” value is over 48.08 and the EC50 was found to be 4.16 µM.

With `COc1c(O)cc2oc3cc(O)c(OC)c(OC)c3c(=O)c2c1O` [Compound 12, 1,3,6-trihydroxy-2,7,8-trimethoxy-9H-xanthen-9-one], in data set [1], the IC50 turned out to be 6.21 ± 0.08 µM. The CC50 at 3 days in data set [2] (setting [3]) is over 200 µM. In the data set with HIV-1IIIB, the “TI (therapeutic index) = CC50/EC50” value was over 31.50 and the EC50 is 6.35 µM.

On to `COc1c(O)cc2oc3ccc(O)c(OC)c3c(=O)c2c1OC` [Compound 9, 3,7-dihydroxy-1,2,8-trimethoxy-9H-xanthen-9-one], for which the IC50 in data set [1] was determined as 18.4 ± 0.21 µM. Also, the CC50 at 3 days in data set [2] (setting [3]) is over 200 µM. Also, in the data set on HIV-1IIIB, the “TI (therapeutic index) = CC50/EC50” value was over 37.59 and the EC50 is 5.32 µM.

Consider `C=C(C)C(O)CCC(C)=CCc1c(O)c(CC=C(C)C)c(O)c2c(=O)c3cc(O)ccc3oc12` (stereo not shown) [Compound 1, Cratocochinone A], for which, in data set [1], the IC50 came out at 1.29 ± 0.06 µM. For the same molecule, the CC50 at 3 days in data set [2] (setting [3]) is over 200 µM. Further, in the data set with HIV-1IIIB, the “TI (therapeutic index) = CC50/EC50” value is reported as over 909.09 and the EC50 worked out at 0.22 µM.

Take `COc1cc2oc3c(O)ccc(OC)c3c(=O)c2c(O)c1OC` [Compound 11, 1,5-dihydroxy-2,3,8-trimethoxy-9H-xanthen-9-one]: the IC50 in data set [1] was found to be 3.16 ± 0.09 µM. Moreover, the CC50 at 3 days in data set [2] (setting [3]) was over 200 µM. Moreover, in the data set on HIV-1IIIB, the “TI (therapeutic index) = CC50/EC50” value is over 17.81 and the EC50 stood at 11.2 µM.

Consider `CC(C)=CCC/C(C)=C/Cc1c(O)c(CC=C(C)C)c(O)c2c(=O)c3c(O)ccc(O)c3oc12` [Compound 5, 1,3,5,8-tetrahydroxy-2-(3-methybut-2-enyl)-4-(3,7-dimethylocta-2,6-dienyl) xanthone], for which the IC50 in data set [1] amounted to 6.47 ± 0.1 µM. For the same molecule, in data set [2] (setting [3]), the CC50 at 3 days was over 200 µM. Further, in the data set on HIV-1IIIB, the “TI (therapeutic index) = CC50/EC50” value is on record as over 79.05 and the EC50 is 2.53 µM.

`COc1ccc2c(=O)c3c(O)cc4c(c3oc2c1O)C(C)(C)C(CO)O4` (stereo not shown) [Compound 2, Cratocochinone B]: the IC50 in data set [1] turned out to be 2.17 ± 0.09 µM. Also, the CC50 at 3 days in data set [2] (setting [3]) was over 200 µM. For the same molecule, in the data set on HIV-1IIIB, the “TI (therapeutic index) = CC50/EC50” value is recorded as over 294.12 and the EC50 was 0.68 µM.

On to `C[C@]12CCC(=O)C=C1CC[C@@H]1[C@@H]2[C@@H](O)C[C@@]2(C)[C@H]1CC[C@]2(O)C(=O)CO` [Hydrocortisone, reference compound], for which the IC50 in data set [1] worked out at 4.08 ± 0.08 µM.

Consider `Cc1cn([C@H]2C[C@H](N=[N+]=[N-])[C@@H](CO)O2)c(=O)[nH]c1=O` [AZT, 3′-azido-3′-deoxythymidine, reference compound], for which the CC50 at 3 days in data set [2] came out at 4020 µM. For the same molecule, in the data set on HIV-1IIIB, the “TI (therapeutic index) = CC50/EC50” value is on record as 193,371.51 and the EC50 was determined as 0.0208 µM.

As for `COc1cc(O)c2c(=O)c3c(OC)c(OC)c(O)cc3oc2c1` [Compound 10, 3,8-dihydroxy-1,2,6-trimethoxy-9H-xanthen-9-one], the IC50 in data set [1] came to 7.47 ± 0.11 µM. The CC50 at 3 days in data set [2] (setting [3]) was over 200 µM. Besides, in the data set with HIV-1IIIB, the “TI (therapeutic index) = CC50/EC50” value was over 74.91 and the EC50 was 2.67 µM.

On to `COc1ccc2c(=O)c3cc(O)c(OC)c(O)c3oc2c1OC` [Compound 4, Cratocochinone D], for which the IC50 in data set [1] worked out at 9.42 ± 0.13 µM. Besides, the CC50 at 3 days in data set [2] (setting [3]) is over 200 µM. In the data set with HIV-1IIIB, the “TI (therapeutic index) = CC50/EC50” value is over 49.14 and the EC50 worked out at 4.07 µM.

As for `COc1cc2c(c3oc4c5c(ccc4c(=O)c13)OCO5)C=CC(C)(C)O2` [Compound 8, musaxanthone], in data set [1], the IC50 was determined as 4.16 ± 0.08 µM. Further, the CC50 at 3 days in data set [2] (setting [3]) is over 200 µM. Further, in the data set on HIV-1IIIB, the “TI (therapeutic index) = CC50/EC50” value is over 22.45 and the EC50 came to 8.91 µM.

On to `COc1ccc2c(=O)c3c(OC)c(OC)c(O)cc3oc2c1O` [Compound 3, Cratocochinone C], for which, in data set [1], the IC50 came to 0.86 ± 0.05 µM. For the same molecule, in data set [2] (setting [3]), the CC50 at 3 days was over 200 µM. Further, in the data set on HIV-1IIIB, the “TI (therapeutic index) = CC50/EC50” value is over 105.82 and the EC50 was determined as 1.89 µM.
